From PMC7180572, “5-Alkylamino-N-phenylpyrazine-2-carboxamides: Design, Preparation, and Antimycobacterial Evaluation” (Molecules, 2020)
Converted amounts (≈) assume the structure as drawn. Like-named read-outs stand apart in the source and are kept apart here.

Experiments:
[1] = system: Pseudomonas aeruginosa ATCC 27853, CCM 3955; assay: Antibacterial microdilution broth method (EUCAST); format: cell-based; conditions: read-out: MIC PA
[2] = system: Mycobacterium aurum DSM 43999 (ATCC 23366); assay: Microdilution broth, modified Microplate Alamar Blue Assay, whole cell growth inhibition; format: cell-based; conditions: Mycolicibacterium aurum, read-out: MIC Mycobacterium aurum
[3] = system: Escherichia coli ATCC 25922, CCM 3954; assay: Antibacterial microdilution broth method (EUCAST); format: cell-based; conditions: read-out: MIC EC
[4] = system: Staphylococcus aureus spp.aureus ATCC 29213, CCM 4223; assay: Antibacterial microdilution broth method (EUCAST); format: cell-based; conditions: read-out: MIC SA
[5] = system: Candida parapsilosis ATCC 22019, CCM 8260; assay: Antifungal microdilution broth method (EUCAST); format: cell-based; conditions: Lodderomyces parapsilosis
[6] = system: Candida albicans ATCC 24433, CCM 8320; assay: Antifungal microdilution broth method (EUCAST); format: cell-based
[7] = system: Candida tropicalis ATCC 750, CCM 8264; assay: Antifungal microdilution broth method (EUCAST); format: cell-based; conditions: read-out: MIC CT
[8] = system: Acinetobacter baumanii ATCC 19606, DSM 30007; assay: Antibacterial microdilution broth method (EUCAST); format: cell-based; conditions: Acinetobacter baumannii
[9] = system: Klebsiella pneumoniae ATCC 10031, CCM 4415; assay: Antibacterial microdilution broth method (EUCAST)
HepG2 cells = assay: HepG2 cytotoxicity, CellTiter 96 (MTS) assay; format: cell-based, human; conditions: for IC50: Homo sapiens, HepG2, 24 h, read-out: HepG2 IC50
[10] = system: Trichophyton interdigitale ATCC 9533, CCM 8377; assay: Antifungal microdilution broth method (EUCAST); format: cell-based; conditions: read-out: MIC TI
[11] = system: Staphylococcus epidermidis ATCC 12228, CCM 4418; assay: Antibacterial microdilution broth method (EUCAST); format: cell-based; conditions: read-out: MIC SE
[12] = system: Mycobacterium tuberculosis H37Ra ITM-M006710 (ATCC 9431); assay: Microdilution broth, modified Microplate Alamar Blue Assay, whole cell growth inhibition; format: cell-based; conditions: Mycobacterium tuberculosis; in vitro, Middlebrook 7H9 broth, resazurin; read-out: MIC Mtb H37Ra
[13] = system: Candida krusei ATCC 6258, CCM 8271; assay: Antifungal microdilution broth method (EUCAST); format: cell-based; conditions: Pichia kudriavzevii
[14] = system: Enterococcus faecalis ATCC 29212, CCM 4224; assay: Antibacterial microdilution broth method (EUCAST); format: cell-based; conditions: read-out: MIC EF
[15] = system: Mycobacterium smegmatis DSM 43465 (ATCC 607); assay: Microdilution broth, modified Microplate Alamar Blue Assay, whole cell growth inhibition; format: cell-based; conditions: Mycolicibacterium smegmatis, read-out: MIC Mycobacterium smegmatis
[16] = system: Aspergillus fumigatus ATCC 204305; assay: Antifungal microdilution broth method (EUCAST); format: cell-based; conditions: read-out: MIC AF
[17] = system: Staphylococcus aureus methicillin resistant ATCC 43300, CCM 4750; assay: microbe, parasite or virus in culture; format: cell-based; conditions: ATCC 43300 / CCM 4750 / MRSA, read-out: MIC MRSA
[18] = system: Absidia corymbifera CCM 8077 (Lichtheimia corymbifera); assay: Antifungal microdilution broth method (EUCAST); format: cell-based; conditions: read-out: MIC AC
[19] = system: Aspergillus flavus CCM 8363; assay: Antifungal microdilution broth method (EUCAST); format: cell-based; conditions: read-out: MIC AFla

CCCCCNc1cnc(C(=O)Nc2cccc(C(F)(F)F)c2)cn1 [Compound 1c, 5-(Pentylamino)-N-(3-(trifluoromethyl)phenyl)pyrazine-2-carboxamide]
MIC ([1]; 72 h): > 500 µM | MIC ([1]; 120 h): > 500 µM | MIC [2]: 3.13 µg/mL (≈ 8.88 µM) | MIC ([3]; 24 h): > 500 µM | MIC ([3]; 48 h): > 500 µM | melting point: 128 to 129 °C | MIC ([4]; 24 h): > 500 µM | MIC ([4]; 48 h): > 500 µM | MIC ([5]; 24 h, read-out: MIC CP): 125 µM (≈ 44 µg/mL) | MIC ([5]; 48 h, read-out: MIC CP): 125 µM (≈ 44 µg/mL) | MIC ([5]; read-out: MIC CP (Candida parapsilosis)): 125 µM (≈ 44 µg/mL) | MIC ([6]; 24 h, read-out: MIC CA): > 125 µM | MIC ([6]; 48 h, read-out: MIC CA): > 125 µM | MIC ([6]; read-out: MIC CA (Candida albicans)): > 125 µM | MIC ([7]; 24 h): > 125 µM | MIC ([7]; 48 h): > 125 µM | MIC ([8]; 24h): > 500 µM | MIC ([8]; 48h): > 500 µM | MIC KP ([9]; 24h): > 500 µM | MIC KP ([9]; 48h): > 500 µM | IC50 (HepG2 cells): 18.9 µM | SI, selectivity index (HepG2 cells; IC50 (HepG2)/MIC against Mtb H37Ra (in µM)): 2.13 | MIC ([10]; 72 h): > 125 µM | MIC ([10]; 120 h): > 125 µM | MIC ([11]; 24 h): > 500 µM | MIC ([11]; 48 h): > 500 µM | MIC [12]: 3.13 µg/mL (≈ 8.88 µM) | MIC ([13]; 24 h, read-out: MIC CK): 62.5 µM (≈ 22 µg/mL) | MIC ([13]; 48 h, read-out: MIC CK): 62.5 µM (≈ 22 µg/mL) | MIC ([13]; read-out: MIC CK (Candida krusei)): 62.5 µM (≈ 22 µg/mL) | MIC ([14]; 24 h): > 500 µM | MIC ([14]; 48 h): > 500 µM | MIC [15]: 1.56 µg/mL (≈ 4.43 µM) | MIC ([16]; ATCC204305, 24 h): > 125 µM | MIC ([16]; ATCC204305, 48 h): > 125 µM | MIC ([17]; 24 h): > 500 µM | MIC ([17]; 48 h): > 500 µM | MIC ([18]; CCM8077, 24 h): > 125 µM | MIC ([18]; CCM8077, 48 h): > 125 µM | MIC ([19]; CCM8363, 24 h): > 125 µM | MIC ([19]; CCM8363, 48 h): > 125 µM

CCCCCCNc1cnc(C(=O)Nc2cccc(C(F)(F)F)c2)cn1 [Compound 1d, 5-(Hexylamino)-N-(3-(trifluoromethyl)phenyl)pyrazine-2-carboxamide]
MIC ([1]; 72 h): > 500 µM | MIC ([1]; 120 h): > 500 µM | MIC [2]: 25 µg/mL (≈ 68.2 µM) | MIC ([3]; 24 h): > 500 µM | MIC ([3]; 48 h): > 500 µM | melting point: 148 to 149 °C | MIC ([4]; 24 h): > 500 µM | MIC ([4]; 48 h): > 500 µM | MIC ([5]; 24 h, read-out: MIC CP): > 500 µM | MIC ([5]; 48 h, read-out: MIC CP): > 500 µM | MIC ([6]; 24 h, read-out: MIC CA): > 500 µM | MIC ([6]; 48 h, read-out: MIC CA): > 500 µM | MIC ([7]; 24 h): > 500 µM | MIC ([7]; 48 h): > 500 µM | MIC ([8]; 24h): > 500 µM | MIC ([8]; 48h): > 500 µM | MIC KP ([9]; 24h): > 500 µM | MIC KP ([9]; 48h): > 500 µM | IC50 (HepG2 cells): > 25 µM | MIC ([10]; 72 h): > 500 µM | MIC ([10]; 120 h): > 500 µM | MIC ([11]; 24 h): > 500 µM | MIC ([11]; 48 h): > 500 µM | MIC [12]: ≥ 500 µg/mL | MIC ([13]; 24 h, read-out: MIC CK): > 500 µM | MIC ([13]; 48 h, read-out: MIC CK): > 500 µM | MIC ([14]; 24 h): > 500 µM | MIC ([14]; 48 h): > 500 µM | MIC [15]: ≥ 500 µg/mL | MIC ([16]; ATCC204305, 24 h): > 500 µM | MIC ([16]; ATCC204305, 48 h): > 500 µM | MIC ([17]; 24 h): > 500 µM | MIC ([17]; 48 h): > 500 µM | MIC ([18]; CCM8077, 24 h): > 500 µM | MIC ([18]; CCM8077, 48 h): > 500 µM | MIC ([19]; CCM8363, 24 h): > 500 µM | MIC ([19]; CCM8363, 48 h): > 500 µM

CCCCCCCNc1cnc(C(=O)Nc2cccc(C(F)(F)F)c2)cn1 [Compound 1e, 5-(Heptylamino)-N-(3-(trifluoromethyl)phenyl)pyrazine-2-carboxamide]
MIC ([1]; 72 h): > 500 µM | MIC ([1]; 120 h): > 500 µM | MIC [2]: 62.5 µg/mL (≈ 164 µM) | MIC ([3]; 24 h): > 500 µM | MIC ([3]; 48 h): > 500 µM | melting point: 148 to 149 °C | MIC ([4]; 24 h): > 500 µM | MIC ([4]; 48 h): > 500 µM | MIC ([5]; 24 h, read-out: MIC CP): > 500 µM | MIC ([5]; 48 h, read-out: MIC CP): > 500 µM | MIC ([6]; 24 h, read-out: MIC CA): > 500 µM | MIC ([6]; 48 h, read-out: MIC CA): > 500 µM | MIC ([7]; 24 h): > 500 µM | MIC ([7]; 48 h): > 500 µM | MIC ([8]; 24h): > 500 µM | MIC ([8]; 48h): > 500 µM | MIC KP ([9]; 24h): > 500 µM | MIC KP ([9]; 48h): > 500 µM | IC50 (HepG2 cells): 223 µM | MIC ([10]; 72 h): > 500 µM | MIC ([10]; 120 h): > 500 µM | MIC ([11]; 24 h): > 500 µM | MIC ([11]; 48 h): > 500 µM | MIC [12]: ≥ 500 µg/mL | MIC ([13]; 24 h, read-out: MIC CK): > 500 µM | MIC ([13]; 48 h, read-out: MIC CK): > 500 µM | MIC ([14]; 24 h): > 500 µM | MIC ([14]; 48 h): > 500 µM | MIC [15]: ≥ 500 µg/mL | MIC ([16]; ATCC204305, 24 h): > 500 µM | MIC ([16]; ATCC204305, 48 h): > 500 µM | MIC ([17]; 24 h): > 500 µM | MIC ([17]; 48 h): > 500 µM | MIC ([18]; CCM8077, 24 h): > 500 µM | MIC ([18]; CCM8077, 48 h): > 500 µM | MIC ([19]; CCM8363, 24 h): > 500 µM | MIC ([19]; CCM8363, 48 h): > 500 µM
